Laboratory results from patent publication US10457659B2, “Compositions and methods for increasing proliferation of adult salivary stem cells” (The Board of Trustees of the Leland Stanford Junior …, priority 2011, dated 2019).
Entries after “also recorded” stand apart in the source; their conditions may differ.

Key:
[1] = molecular target: T1, human ALDH3 recombinant enzyme (Homo sapiens, UniProt P30838); experiment: Catalytic activity of recombinant ALDH3 enzyme (isozyme selectivity, FIG. 3A); assay type: biochemical; conditions: n=3, p<0.01
T1 sequence (P30838 1-453): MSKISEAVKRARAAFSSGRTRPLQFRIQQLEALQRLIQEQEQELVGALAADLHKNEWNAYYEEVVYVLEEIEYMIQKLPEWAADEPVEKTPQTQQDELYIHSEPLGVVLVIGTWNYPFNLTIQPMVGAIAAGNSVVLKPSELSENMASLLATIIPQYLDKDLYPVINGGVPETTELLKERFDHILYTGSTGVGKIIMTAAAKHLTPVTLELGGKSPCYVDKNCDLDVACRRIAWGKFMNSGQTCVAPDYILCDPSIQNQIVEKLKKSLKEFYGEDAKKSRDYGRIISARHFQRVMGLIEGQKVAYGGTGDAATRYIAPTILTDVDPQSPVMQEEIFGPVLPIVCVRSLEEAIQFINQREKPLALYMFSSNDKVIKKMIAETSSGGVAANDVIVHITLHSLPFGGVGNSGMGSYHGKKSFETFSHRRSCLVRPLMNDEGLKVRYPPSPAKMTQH
Method: (§1) As an example of an assay for dehydrogenase activity, ALDH aldehyde dehydrogenase activity is assayed at 25° C. in 50 mM sodium pyrophosphate HCl buffer, pH 9.0, 100 mM sodium phosphate buffer, pH 7.4, or 50 mM sodium phosphate buffer, pH 7.4, where the buffer includes NAD^+ (e.g., 0.8 mM NAD^+, or higher, e.g., 1 mM, 2 mM, or 5 mM NAD^+) and an aldehyde substrate such as 14 μM propionaldehyde. Reduction of NAD^+ is monitored at 340 nm using a spectrophotometer, or by fluorescence increase using a fluoromicrophotometer Enzymatic activity can be assayed using a standard spectrophotometric method, e.g., by measuring a reductive reaction of the oxidized form of nicotinamide adenine dinucleotide (NAD^+) to its reduced form, NADH, at 340 nm, as described in US 2005/0171043; and WO 2005/057213, and as depicted schematically in FIG. 4. In an exemplary assay, the reaction is carried out at 25° C. in […] pyrophosphate (NaPPi) buffer, pH 9.0, 2.4 mM NAD^+ and 10 mM acetaldehyde as the substrate. Enzymatic activity is measured by a reductive reaction of NAD^+ to NADH at 340 nm, as described in US 2005/0171043; and WO 2005/057213. Alternatively, the production of NADH can be coupled with another enzymatic reaction that consumes NADH and that provides for a detectable signal. […]

[2] = molecular target: T2, ALDH2 (Homo sapiens, UniProt P05091); experiment: Catalytic activity of ALDH2 isozyme (isozyme selectivity, FIG. 3A); assay type: biochemical
T2 sequence (P05091 18-517): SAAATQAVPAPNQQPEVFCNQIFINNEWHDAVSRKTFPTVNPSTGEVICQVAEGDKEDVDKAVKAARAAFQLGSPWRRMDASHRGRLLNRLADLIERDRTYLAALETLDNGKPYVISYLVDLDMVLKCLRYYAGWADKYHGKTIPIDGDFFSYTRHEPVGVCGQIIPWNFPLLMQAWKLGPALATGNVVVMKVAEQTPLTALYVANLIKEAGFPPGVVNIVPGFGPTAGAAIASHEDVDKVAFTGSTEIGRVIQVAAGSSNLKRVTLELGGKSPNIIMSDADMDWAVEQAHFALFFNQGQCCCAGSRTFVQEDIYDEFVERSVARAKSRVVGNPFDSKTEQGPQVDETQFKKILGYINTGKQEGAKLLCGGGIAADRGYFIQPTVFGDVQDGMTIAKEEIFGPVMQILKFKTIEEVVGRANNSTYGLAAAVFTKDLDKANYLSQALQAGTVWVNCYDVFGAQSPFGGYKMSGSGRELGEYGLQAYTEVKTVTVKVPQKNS
Method: as §1

[3] = molecular target: T3, ALDH1 (Homo sapiens, UniProt P00352); experiment: Catalytic activity of ALDH1 isozyme (isozyme selectivity, FIG. 3A); assay type: biochemical
T3 sequence (P00352 1-501): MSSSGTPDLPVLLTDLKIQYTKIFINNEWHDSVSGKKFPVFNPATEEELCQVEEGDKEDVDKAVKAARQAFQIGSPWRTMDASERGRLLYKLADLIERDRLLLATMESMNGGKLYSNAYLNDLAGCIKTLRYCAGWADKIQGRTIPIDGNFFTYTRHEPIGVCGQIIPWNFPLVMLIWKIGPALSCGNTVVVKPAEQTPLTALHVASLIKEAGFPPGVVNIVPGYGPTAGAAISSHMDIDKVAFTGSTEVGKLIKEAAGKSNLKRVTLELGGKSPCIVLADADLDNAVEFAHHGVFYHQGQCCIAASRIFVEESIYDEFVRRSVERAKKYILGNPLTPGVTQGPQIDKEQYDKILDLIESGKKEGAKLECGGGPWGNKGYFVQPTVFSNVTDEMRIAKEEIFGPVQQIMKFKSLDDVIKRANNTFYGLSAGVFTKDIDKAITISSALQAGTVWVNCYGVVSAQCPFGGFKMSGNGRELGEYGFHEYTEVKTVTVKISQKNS
Method: as §1

[4] = molecular target: T4, ALDH3 (Mus musculus, UniProt P47739); experiment: ALDH3 enzyme activity in esophagus cell homogenate after osmotic pump infusion into mice (FIG. 3B); assay type: in vivo; conditions: 34 mg/kg/day, n=5, p<0.05
T4 construct: enhanced ALDH3 enzyme activity by 29% in esophagus cell homogenate; from tissue; host or cells: esophagus cell homogenate of C57BL/6 mice
T4 sequence (P47739 1-453): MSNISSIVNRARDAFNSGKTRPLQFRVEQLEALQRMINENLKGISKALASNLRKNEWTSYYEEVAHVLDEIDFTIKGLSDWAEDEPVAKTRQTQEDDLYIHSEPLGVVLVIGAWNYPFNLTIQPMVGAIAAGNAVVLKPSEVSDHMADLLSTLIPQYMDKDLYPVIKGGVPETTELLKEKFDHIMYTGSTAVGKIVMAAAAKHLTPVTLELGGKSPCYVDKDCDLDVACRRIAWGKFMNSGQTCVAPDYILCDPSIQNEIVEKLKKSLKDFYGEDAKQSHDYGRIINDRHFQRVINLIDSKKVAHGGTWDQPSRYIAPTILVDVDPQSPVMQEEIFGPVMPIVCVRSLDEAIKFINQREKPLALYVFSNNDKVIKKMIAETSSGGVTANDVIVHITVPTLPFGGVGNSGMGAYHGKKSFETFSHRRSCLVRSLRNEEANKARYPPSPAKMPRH

[5] = system: ALDH5; experiment: Catalytic activity of ALDH5 isozyme (isozyme selectivity, FIG. 3A); assay type: biochemical
Method: as §1

[6] = system: c-kit+/CD90+ SMG cells; experiment: FACS count of c-Kit+/CD90+ submandibular gland cells after 7 days of infusion in mice (FIG. 3C); assay type: in vivo, mouse
Method: All animal procedures were approved by the Institutional Animal Care and Use Committee at Stanford University. Female C57BL/6 mice (n=10, 4-5 weeks old, Jackson Laboratory, Sacramento, Calif.) were used for ALDH3 activator study.
(§2) An ALDH3 activator (Alda89, 100 ug/ml, n=5) and Vehicle control ([…]; 50% DMSO and 50% PEG400, n=5) was injected into ALZET osmotic pumps (DURECT Corporation, Cupertino, Calif.). The osmotic pumps were implanted subcutaneously into C57BL/6 mice. The mice were euthanized after 7 days and salivary gland tissues were collected for analysis of salsiphere formation and BrdU incorporation as described above. In addition, FACs analysis for anti-mouse c-Kit and anti-mouse CD90 (BD Biosciences, San Jose, Calif.) cell population was also performed in pooled SMG samples.

[7] = system: SMG salispheres; experiment: Salisphere formation and BrdU incorporation of unselected SMG cells from treated mice (FIG. 3D); assay type: in vivo, mouse
Method: After 3 days of culture, cells were stained with Brdu staining kit according to the manufacturer's instructions (Invitrogen, Carlsbdad, Calif.). The total number of salispheres and BrdU positive salispheres per 96 well were counted under light microscopy. For each group 20 wells were counted and experiments were repeated 3 times.
as §2

SMILES: C=CCc1ccc2c(c1)OCO2 [Alda-89, 5-(2-propenyl)-1,3-benzodioxole]
- catalytic activity of human ALDH3 recombinant enzyme [1]: 304.4±7.1 % of control
- effect on ALDH2 isozyme catalytic activity [2]: no effect
- effect on ALDH1 isozyme catalytic activity [3]: no effect
- enhancement of ALDH3 enzyme activity in esophagus cell homogenate vs vehicle control [4]: 29%
- effect on ALDH5 isozyme catalytic activity [5]: no effect
- change in number of c-kit+/CD90+ SMG cells compared to vehicle control ([6]; 7 days of treatment): more than doubling; also recorded: more than doubled
- number of c-kit+/CD90+ cells in SMG ([6]; 7 days of treatment by subcutaneous osmotic pump, vehicle 7.37±0.45%, p<0.05): 17.8±0.95%
- change in BrdU+ salisphere number after treatment of adult mice ([7]; adult mice, summary statement): more than doubling
- number of BrdU+ spheres ([7]; unselected SMG cells from mice treated 7 days, 3 days of culture, vehicle 66±1.42, p<0.05): 91±0.83 spheres/5000 cells
- total number of salispheres ([7]; unselected SMG cells from mice treated 7 days, 3 days of culture, vehicle 86±0.58, p<0.05): 121±0.83 spheres/5000 cells
